Experimental data reported in US20250224398A1, “GASDERMIN E EXPRESSION IN HUMAN T CELLS AS A MARKER FOR PROINFLAMMATORY T CELL FUNCTIONS” (LEIBNIZ-INSTITUT FÜR NATURSTOFF-FORSCHUNG UND …, priority 2022, published 2025).
Entries after “also recorded” stand apart in the source; their conditions may differ. Residues, ends and D or L forms follow the SMILES beside them. *: point of attachment. Cbz = O=C(OCc1ccccc1)*; CH2F = FC*

Key:
SGC-7901 and MKN-45 = conditions: cited from earlier work
human Th17 cells [1] = experiment: Cytokine secretion by stimulated Th17 cells into culture supernatants (ELISA / Luminex); type: cell-based; conditions: for IL-1α secretion by Th17 cells: Th17 cells stimulated with anti-CD3 and anti-CD28 mAbs for 5 days, ELISA of supernatants
Experimental: (§1) Human T cells were cultured in RPMI 1640 medium supplemented with 1% (v/v) GlutaMAX™ Supplement, 1% (v/v) MEM nonessential Amino Acids Solution (100×), 1% (v/v) sodium pyruvate (100 mM), 0.1% 2-Mercaptoethanol (50 mM) (all from Gibco™), 1% (v/v) Penicillin-Streptomycin (Sigma-Aldrich), penicillin (500 U/ml), streptomycin (500 μg/ml), and 10% (v/v) fetal calf serum (Sigma-Aldrich). In some experiments, T cell culture was performed in the presence of recombinant cytokines (IL-6, 50 ng/ml; IL-12, 10 ng/ml; IL-4, 10 ng/ml; TGF-b, 10 ng/ml; IL-1b, 20 ng/ml; all from R&D Systems) or neutralizing antibodies (anti-IL-1a, […], BD Biosciences). […] T cells were stimulated with plate-bound anti-CD3 (2 μg/ml, clone TR66) and anti-CD28 mAbs (2 μg/ml, clone CD28.2; both from BD Biosciences) for 48 h before transfer into uncoated wells for another 3 days for a total culture period of 5 days, unless indicated otherwise in the legends. T cell clones were generated in non-polarizing conditions as described previously following single-cell deposition with fluorescence-activated cell sorting or by limiting dilution cloning (Gross, O. et al. Inflammasome activators induce interleukin-1alpha secretion via distinct pathways with differential requirement for the protease function of caspase-1. Immunity 36, 388-400, doi: 10.1016/j.immuni.2012.01.018 (2012)). Human monocytes were isolated from PBMCs by positive selection with CD14-specific MicroBeads (Miltenyi Biotec). Cells were stimulated with or without 1 μg/mL ultrapure lipopolysaccharide (LPS)-EB (t1r1-3pelps, InvivoGen) for 24 h and nigericin (10 μg/mL, InvivoGen) or ATP (5 mM, Thermo Fisher Scientific) for the last 30 mins. In some experiments, CD14^+ magnetic activated cell sorting (MACS)-sorted monocytes were differentiated into macrophages for 7 days in the presence of GM-CSF (R&D Systems).
(§2) Intracellular cytokine and transcription factor staining was performed as described before (Noster, R. et al. IL-17 and GM-CSF expression are antagonistically regulated by human T helper cells. Sci Transl Med 6, 241ra280, doi: 10.1126/scitranslmed.3008706 (2014)). Cells were stained with the following antibodies: anti-IL-1a-PE (364-3B3-14), anti-IL-4-FITC (MP4-25D2 5), anti-IL-17A-Pacific Blue (BL168), anti-IFN-g-APC-Cy7 (4S.B3), anti-IL-10-PE-Cy7 (JES3-9D7), (all from Biolegend), anti-RORgt-APC (AFKJS-9, eBioscience), anti-Ki67-BV421 (Biolegend), and anti-IL-1R1-PE (FAB269P, R&D Systems). Then, they were analyzed with a BD LSRFortessa (BD Biosciences), a CytoFLEX Flow Cytometer (Beckman Coulter) or a MACSQuant analyzer (Miltenyi Biotec). Flow cytometry data were analyzed with FlowJo software (Tree Star) or with Cytobank (Cytobank Inc.). The concentrations of cytokines in cell culture supernatants were measured by ELISA (Duoset ELISA kits from R&D Systems, Human Caspase-1SimpleStep ELISA Kit (Abcam) or by Luminex (eBioscience) according to standard protocols as indicated in the corresponding figure legends. Counting beads (CountBright™ Absolute Counting Beads, Thermo Fisher Scientific) were used to normalize for cell numbers if analysis of cumulative supernatants obtained from 5-day cell cultures was performed.

human monocytes = experiment: IL-1a secretion by LPS/nigericin stimulated monocytes (ELISA); type: cell-based; conditions: LPS 24 h, nigericin 30 min
Experimental: as §1, with “Human monocytes were isolated from PBMCs by positive selection with CD14-specific MicroBeads (Miltenyi Biotec). Cells were stimulated with or without 1 μg/mL ultrapure lipopolysaccharide (LPS)-EB (t1r1-3pelps, InvivoGen) for 24 h and nigericin (10 μg/mL, InvivoGen) or ATP (5 mM, Thermo Fisher Scientific) for the last 30 mins. In some experiments, CD14^+ magnetic activated cell sorting (MACS)-sorted monocytes were differentiated into macrophages for 7 days in the presence of GM-CSF (R&D Systems).” left out

human Th17 cells [2] = experiment: Western blot / Jess Simple Western of Th17 cell lysates for caspase and GSDME cleavage; type: cell-based; conditions: for GSDME cleavage / caspase-3 cleavage: Th17 cells stimulated 5 days with anti-CD3 and anti-CD28 mAbs
Experimental: as §1
Cells were lysed in RIPA buffer (50 mM Tris, 150 mM NaCl, 1 mM EDTA, 0.1% NP-40, pH 7.5) containing protease inhibitor (Roche) and PhosphoSTOP Easypack (Roche). The protein concentrations of cell lysates were determined with a Pierce™ BCA Protein Assay Kit (Thermo Fisher Scientific™). Total protein ([…]) was boiled with 4× Laemmli sample buffer (Bio-Rad Laboratories) containing 355 mM 2-mercaptoethanol (Thermo Fisher Scientific) at 99° C. for 10 min. The supernatants and lysates were separated by SDS-polyacrylamide gel electrophoresis (PAGE) and transferred to a PVDF membrane (Bio-Rad Laboratories) by using a Mini-Protean system (Bio-Rad Laboratories) according to the manufacturer's protocol. The following primary antibodies were used for immunoblotting: mouse anti-human caspase-8 (Cell Signaling Technology), rabbit anti-human caspase-1 (Cell Signaling Technology), rabbit anti-human IL-1α (Abcam), mouse anti-human GAPDH (Merck millipore), mouse anti-human b-actin (Cell Signaling Technology), and rabbit anti-human gasdermin E (Abcam), rabbit anti-human caspase-3 (Cell Signaling Technology), mouse anti-human caspase-8 (Cell Signaling Technology), rabbit anti-human gasdermin D (Cell Signaling Technology), rabbit anti-human cleaved gasdermin D (Cell Signaling Technology), rabbit anti-NLRP3 (Cell Signaling Technology). HRP-conjugated anti-mouse and anti-rabbit IgG antibodies (Cell Signaling Technology) were used as secondary antibodies. Immunoreactive bands were detected by Pierce™ ECL Western Blotting Substrate or SuperSignal™ West Femto Maximum Sensitivity Substrate (both from Thermo Scientific™). Chemiluminescence signals were recorded with an Odyssey Imaging system (LI-COR Biosciences) and analyzed on Image Studio™ Lite (LI-COR Biosciences). Image contrast was enhanced in a linear fashion when necessary. Protein lysates were also prepared for automated Western blotting using a Jess System (ProteinSimple) according to the manufacturer's instructions. […]

[3] = tested on: patients suffering from the rare autoinflammatory Schnitzler syndrome; experiment: Treatment of Schnitzler syndrome patients with IL-1β-neutralizing antibody; IL-1α secretion of ex vivo Th17 cell clones (Luminex) and clinical symptoms; type: in vivo, human; conditions: treatment for 6 months; Th17 cell clones restimulated with CD3 and CD28 mAbs for 5 days
Experimental: Peripheral blood mononuclear cells (PBMCs) were isolated by density gradient centrifugation using Ficoll-Paque Plus (GE Healthcare). CD4^+ T cells were isolated from fresh PBMC by positive selection with CD4-specific MicroBeads (Miltenyi Biotec) using an autoMACS Pro Separator. […]
as §2, with “Cells were stained with the following antibodies: anti-IL-1a-PE (364-3B3-14), anti-IL-4-FITC (MP4-25D2 5), anti-IL-17A-Pacific Blue (BL168), anti-IFN-g-APC-Cy7 (4S.B3), anti-IL-10-PE-Cy7 (JES3-9D7), (all from Biolegend), anti-RORgt-APC (AFKJS-9, eBioscience), anti-Ki67-BV421 (Biolegend), and anti-IL-1R1-PE (FAB269P, R&D Systems).” left out, “performed. […]” for “performed.”

[4] = tested on: patients suffering from the rare autoinflammatory Schnitzler syndrome; conditions: treatment for 6 months; cited from earlier work
human Th17 cells [5] = experiment: Intracellular cytokine staining and flow cytometry of Th17 cells; type: cell-based
Experimental: as §1, with “In some experiments, CD14^+ magnetic activated cell sorting (MACS)-sorted monocytes were differentiated into macrophages for 7 days in the presence of GM-CSF (R&D Systems).” left out
as §2, with “Cells were stained with the following antibodies: anti-IL-1a-PE (364-3B3-14), anti-IL-4-FITC (MP4-25D2 5), anti-IL-17A-Pacific Blue (BL168), anti-IFN-g-APC-Cy7 (4S.B3), anti-IL-10-PE-Cy7 (JES3-9D7), (all from Biolegend), anti-RORgt-APC (AFKJS-9, eBioscience), anti-Ki67-BV421 (Biolegend), and anti-IL-1R1-PE (FAB269P, R&D Systems).” left out

[6] = Th17 cells, restimulation with PMA and ionomycin in presence or absence of BFA
[7] = anti-CD3 and anti-CD28 mAb 5 days, PMA and ionomycin restimulation

For `O=c1[nH]cc(F)c(=O)[nH]1` [5-FU], the cell viability (SGC-7901 and MKN-45; SGC-7901 and MKN-45 treated with 5-FU) is listed as “significantly decreased”, the “percentage of PI and APC Annexin-V double positive cells” value (SGC-7901 and MKN-45; after 5-FU treatment compared to control group) is listed as “elevated” and the “release of LDH” value (SGC-7901 and MKN-45) is listed as “elevated”.

For `CSCC[C@@H](C=O)NC(=O)[C@H](CC(C)C)NC(=O)[C@H](CC(C)C)NC(C)=O` [calpain inhibitor, N-Acetyl-L-leucyl-L-leucyl-L-methioninal] (Ac-Leu-Leu-Met-aldehyde), the “IL-1α secretion by Th17 cells” value (human Th17 cells [1]) was “dose-dependent reduction” and the “LPS/nigericin-induced IL-1a secretion by monocytes” value (human monocytes) was “not dependent on calpain”.

In the case of `CC(=O)N[C@@H](Cc1ccc(O)cc1)C(=O)N[C@H](C(=O)N[C@@H](C)C(=O)N[C@@H](CC(=O)O)C(=O)CCl)C(C)C` [Ac-YVAD-CMK], the “IL-1α secretion by Th17 cells” value (human Th17 cells [1]) is reported as “did not inhibit; also recorded: significantly elevated”.

For `CC(C)(O)c1coc(S(=O)(=O)NC(=O)Nc2c3c(cc4c2CCC4)CCC3)c1` [MCC950], the “IL-1α secretion by Th17 cells” value (human Th17 cells [1]) was “significantly reduced; also recorded: significantly inhibited”, the GSDME cleavage (human Th17 cells [2]) was “significant reduction” and the caspase-3 cleavage (human Th17 cells [2]) was “significant reduction”. The caspase-8 cleavage (human Th17 cells [2]; Th17 cells stimulated, day 5) was “less pronounced”.

In the case of “gevokizumab: IL-1β-neutralizing antibody”, the “IL-1α production by Th17 cells of Schnitzler syndrome patients” value [3] is listed as “significant reduction” and the clinical symptoms [4] is listed as “complete resolution”.

In the case of `C[C@H]1CCC/C=C/[C@@H]2C[C@H](O)C[C@H]2[C@H](O)/C=C/C(=O)O1` [BFA, brefeldin A], the “secretion of IL17A into the extracellular space” value (human Th17 cells [1]; [6]) is reported as “reduced” and the “intracellular IL-1α expression” value (human Th17 cells [5]; [6]) is reported as “not influenced”.

With `COC(=O)CC[C@H](NC(=O)[C@H](CC(=O)OC)NC(=O)OCc1ccccc1)C(=O)N[C@H](C(=O)N[C@@H](CC(=O)OC)C(=O)CF)C(C)C` [Z-DEVD-FMK] the “IL-1α secretion by Th17 cells” value (human Th17 cells [1]) was “abrogating” and the GSDME cleavage (human Th17 cells [2]) was “reduced”.

In the case of `CC[C@H](C)[C@H](NC(=O)OCc1ccccc1)C(=O)N[C@@H](CCC(=O)OC)C(=O)N[C@H](C(=O)N[C@@H](CC(=O)OC)C(=O)CF)[C@@H](C)O` [Z-IETD-FMK] (Cbz-IE(OMe)TD(OMe)-CH2F), the “IL-1α secretion by Th17 cells” value (human Th17 cells [1]) is reported as “abrogating”, the GSDME cleavage (human Th17 cells [2]) is reported as “reduced” and the caspase-3 cleavage (human Th17 cells [2]) is reported as “abrogation”.

In the case of “canakinumab: IL-1β-neutralizing antibody”, the “IL-1α production by Th17 cells of Schnitzler syndrome patients” value [3] is given as “significant reduction” and the clinical symptoms [4] is given as “complete resolution”.

For `C/C=C(/C)C(=O)O[C@H]1C(C)=C2[C@H]([C@@H]1OC(=O)CCCCCCC)[C@@](C)(OC(C)=O)C[C@H](OC(=O)CCC)[C@@]1(O)[C@H]2OC(=O)[C@@]1(C)O` [thapsigargin], the “IL-1α secretion by Th17 cells” value (human Th17 cells [1]) was “increased”.

B1: recombinant IL-1α: recombinant IL-1α applied exogenously to Th17 cells (protein, UniProt P01583 113-271, looked up)
Interleukin-1 alpha: SAPFSFLSNVKYNFMRIIKYEFILNDALNQSIIRANDQYLTAAALHNLDEAVKFDMGAYKSSKDDAKITVILRISKTQLYVTAQDEDQPVLLKEMPEIPKTITGSETNLLFFWETHGTKNYFTSVAHPNLFIATKQDYWVCLAGGPPSITDFQILENQA
With B1 the “IFN-γ expression by Th17 cells” value (human Th17 cells [5]; [7]) was “upregulation”, the “IL-10 expression by Th17 cells” value (human Th17 cells [5]; [7]) was “reduced” and the “IL-17A expression by Th17 cells” value (human Th17 cells [5]; [7]) was “upregulation”.
